From patent US20160279076A1, “METHODS FOR IMPROVEMENT OF VISUAL FUNCTION AND COMPOSITIONS USED THEREIN” (priority 2015, published 2016)

Tested on: ARPE-19 cells
Experiment: Gene expression analysis in ARPE-19 cells after lutein pretreatment and UV exposure
Format: cell-based, human
Conditions: for Down-regulated genes expression / Up-regulated genes expression: 10 μM lutein 24 hour pretreatment
Experimental: Retinal pigment epithelial (RPE) cells play a key protective role by shielding retina from damaging UV rays and are used as a model to study the effect of macular carotenoids. In this study, a human RPE cell line (ARPE-19 cells were acquired from American Type Culture Collection (ATCC)) was either treated with placebo or treated with macular carotenoids alone or in combination for 24 hours prior to UV exposure. Cells were maintained for another 18 hours, then harvested for gene expressions. In another study, acetylcholinesterase and catalase activities in the presence of macular carotenoids were tested.
According to Study 1, Cell line ARPE-19 was subjected to 24 hour pretreatment with 10 μM lutein, followed by exposure to UV radiation of 1 J/m^2 for 7 seconds.
According to Study 2, Cell line ARPE-19 was subjected to 24 hour pretreatment with 10 μM lutein, followed by exposure to UV radiation of 300 J/m^2 for 10 minutes.
Gene expression analysis was carried out in response to UV exposure and macular carotenoid administration.

In the case of `CC1=C[C@H](O)CC(C)(C)[C@H]1/C=C/C(C)=C/C=C/C(C)=C/C=C/C=C(C)/C=C/C=C(C)/C=C/C1=C(C)C[C@@H](O)CC1(C)C` [Lutein, lutein], the Down-regulated genes expression (with UV exposure) is reported as “inhibits inflammation”, the Up-regulated genes expression (with UV exposure) is reported as “inhibits oncogenesis and growth factor tumor suppressors” and the Down-regulated genes expression (without UV exposure) is reported as “inhibits DNA damage and inflammation”. For the same molecule, the Up-regulated genes expression (without UV exposure) was “inhibits oncogenesis and inflammation” and the “Gene expression analysis, overall role for vision health” value (ARPE-19 cells, UV irradiation) was “plays a protective role for vision health”.
